Measurements taken from patent USRE47193E1, “Selectively substituted quinoline compounds” (EISAI R&D MANAGEMENT CO., LTD., priority 2013, dated 2019).
Where two headings read alike, the source gives them in different places.

Legend:
Human TLR7/8 = experiment: Human PBMC cell-based assay, TLR7/8 stimulus (RNA-Ig), cytokine ELISA
In short: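 Healthy-donor human PBMC, 2×10^5 cells/well (1×10^5 in later assay), pre-treated 30 min with compound (0.1% DMSO). Stimulated 20 h at 37 °C with RNA-Ig: 26-mer U1 snRNA stem loop IV phosphorothioate RNA at 2.5 μM plus anti-ssDNA antibody (1:25 or 1 ug/ml). Supernatant cytokines by ELISA.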

mouse TLR7 = target: T1, mouse TLR7 (Mus musculus, UniProt P58681); experiment: Short-term in vivo (STIV) assay: oral dosing, R848 s.c., plasma IL-6; parameters: female BALB/c mice (Jackson Labs, Bar Harbor, Me.) were dosed by oral gavage; tissue Jackson Labs; host or cells: living female BALB/c mice; plasma IL-6 after s.c. R848
T1 sequence (P58681 27-1050): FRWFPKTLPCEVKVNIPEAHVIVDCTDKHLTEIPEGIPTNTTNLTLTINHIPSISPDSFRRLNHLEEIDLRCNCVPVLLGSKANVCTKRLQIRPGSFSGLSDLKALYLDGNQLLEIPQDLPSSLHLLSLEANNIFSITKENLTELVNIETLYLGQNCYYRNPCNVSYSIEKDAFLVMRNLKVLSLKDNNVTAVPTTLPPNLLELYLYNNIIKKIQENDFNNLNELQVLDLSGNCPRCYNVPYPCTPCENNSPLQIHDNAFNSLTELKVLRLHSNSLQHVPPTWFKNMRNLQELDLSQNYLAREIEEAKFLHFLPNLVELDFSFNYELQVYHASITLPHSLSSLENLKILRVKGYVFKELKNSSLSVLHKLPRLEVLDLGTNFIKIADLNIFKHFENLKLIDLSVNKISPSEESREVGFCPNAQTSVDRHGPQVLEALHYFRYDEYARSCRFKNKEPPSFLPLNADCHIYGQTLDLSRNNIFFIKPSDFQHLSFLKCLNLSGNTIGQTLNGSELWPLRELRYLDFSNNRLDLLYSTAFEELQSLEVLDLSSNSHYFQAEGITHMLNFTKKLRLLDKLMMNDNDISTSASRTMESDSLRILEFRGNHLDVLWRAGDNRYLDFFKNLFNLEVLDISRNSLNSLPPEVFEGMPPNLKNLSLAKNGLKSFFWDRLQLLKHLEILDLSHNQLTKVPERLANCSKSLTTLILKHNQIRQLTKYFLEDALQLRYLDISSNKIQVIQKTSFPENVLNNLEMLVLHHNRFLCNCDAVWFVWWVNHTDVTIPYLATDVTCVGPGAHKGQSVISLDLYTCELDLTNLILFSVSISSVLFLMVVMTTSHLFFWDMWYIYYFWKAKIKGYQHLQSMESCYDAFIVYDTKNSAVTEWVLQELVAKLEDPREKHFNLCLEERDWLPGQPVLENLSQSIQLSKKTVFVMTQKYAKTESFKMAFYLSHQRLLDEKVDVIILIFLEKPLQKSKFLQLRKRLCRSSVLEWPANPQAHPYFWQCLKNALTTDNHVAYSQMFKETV
Protocol: Figure Legend: Female BALB/c mice were dosed by oral gavage with Vehicle alone (0.5% aqueous methyl-cellulose) or compound formulated in Vehicle at 33 mg/kg, 100 mg/kg or 300 mg/kg. […] (FIG. 1A).
Short-term in vivo (STIV) assay: To assess compound potency in vivo against mouse TLR7, a short-term in vivo (STIV) assay was utilized. Briefly, mice were orally dosed with compounds and at various time points afterwards were injected subcutaneously with agonist R848 to stimulate TLR7. The plasma IL-6 level following R848 stimulation was then measured by ELISA to assess compound potency and duration-of-action.
Short-term in vivo (STIV) assay. Six to eight week old female BALB/c mice (Jackson Labs, Bar Harbor, Me.) were dosed by oral gavage in 200 ul volume with antagonist compounds formulated in 0.5% aqueous methyl-cellulose (Sigma, St. Louis, Mo.). At various time points afterwards, mice were injected subcutaneously (s.c.) in 100 ul volume with 15 ug R848 (Resiquimod; GLSynthesis, Worcester, Mass.) to stimulate TLR7.

[1] = primary human PBMC assay, TLR7/8 potency; ligand not given; read-out: Human PBMCs IC50

| SMILES | IC50 (Human TLR7/8; [1]) [nM] | % Suppression vs. Vehicle (mouse TLR7; 6 h, 33 mg/kg) [%] | % Suppression vs. Vehicle (mouse TLR7; 6 h, 100 mg/kg) [%] | % Suppression vs. Vehicle (mouse TLR7; 13 h, 33 mg/kg) [%] | % Suppression vs. Vehicle (mouse TLR7; 13 h, 100 mg/kg) [%] | % Suppression vs. Vehicle (mouse TLR7; 13 h, 300 mg/kg) [%] | % Suppression vs. Vehicle (mouse TLR7; 24 h, 33 mg/kg) [%] | % Suppression vs. Vehicle (mouse TLR7; 24 h, 100 mg/kg) [%] | % Suppression vs. Vehicle (mouse TLR7; 24 h, 300 mg/kg) [%] | also measured |
| --- | --- | --- | --- | --- | --- | --- | --- | --- | --- | --- |
| CC1CN(c2ccc(C#N)c3ncccc23)CC(CN2CCNC(C)C2C)O1 (stereo not shown) [ER-887137] | 2 | 99 | 100 |  |  |  |  |  |  | % Suppression vs. Vehicle (mouse TLR7; 3 h, 33 mg/kg): 100%; % Suppression vs. Vehicle (mouse TLR7; 3 h, 100 mg/kg): 100%; % Suppression vs. Vehicle (mouse TLR7; 3 h, 300 mg/kg): 100%; % Suppression vs. Vehicle (mouse TLR7; 6 h, 300 mg/kg): 100%; % Suppression vs. Vehicle (mouse TLR7; 19 h, 33 mg/kg): 38%; % Suppression vs. Vehicle (mouse TLR7; 19 h, 100 mg/kg): 63%; % Suppression vs. Vehicle (mouse TLR7; 19 h, 300 mg/kg): 100% |
| C[C@@H]1CN(c2ccc(C#N)c3ncccc23)C[C@H](CN2CCN[C@@H](C)C2)O1 [ER-887270] | 1 | 98 |  | 37 | 81 | 99 | 25 | 26 | 100 |  |
| Cc1cc(CO)cc(-c2ccc(C#N)c3ncccc23)c1 [ER-888201] | 4 | 35 | 50 |  |  |  |  |  |  | % Suppression vs. Vehicle (mouse TLR7; 6 h, 300 mg/kg): 40%; % Suppression vs. Vehicle (mouse TLR7; 19 h, 33 mg/kg): 45%; % Suppression vs. Vehicle (mouse TLR7; 19 h, 100 mg/kg): 71%; % Suppression vs. Vehicle (mouse TLR7; 19 h, 300 mg/kg): 79% |
| CC1CN(c2ccc(C#N)c3ncccc23)CC(CN2CCC(NC(=O)c3ccccc3)CC2)O1 (stereo not shown) [ER-888321] | 22 | 86 | 100 | 87 | 100 |  |  |  |  | % Suppression vs. Vehicle (mouse TLR7; 3 h, 33 mg/kg): 98%; % Suppression vs. Vehicle (mouse TLR7; 3 h, 100 mg/kg): 100%; % Suppression vs. Vehicle (mouse TLR7; 19 h, 33 mg/kg): 59%; % Suppression vs. Vehicle (mouse TLR7; 19 h, 100 mg/kg): 59% |
| CC(C)N1CCN(C[C@H]2CN(c3ccc(C#N)c4ncccc34)C[C@@H](C)O2)CC1 [ER-888322] | 18 | 99 | 100 |  |  |  |  |  |  | % Suppression vs. Vehicle (mouse TLR7; 6 h, 300 mg/kg): 100%; % Suppression vs. Vehicle (mouse TLR7; 19 h, 33 mg/kg): 24%; % Suppression vs. Vehicle (mouse TLR7; 19 h, 100 mg/kg): 82%; % Suppression vs. Vehicle (mouse TLR7; 19 h, 300 mg/kg): 100% |
| C[C@@H]1CN(c2ccc(C#N)c3ncccc23)C[C@H](CN2CCN(C)[C@H](C)C2)O1 [ER-890346] | 6 |  |  |  |  |  |  |  |  | % Suppression vs. Vehicle (mouse TLR7; 3 h, 33 mg/kg): 99%; % Suppression vs. Vehicle (mouse TLR7; 19 h, 11 mg/kg): 0%; % Suppression vs. Vehicle (mouse TLR7; 19 h, 33 mg/kg): 20% |
| CC[C@H]1CN(C[C@H]2CN(c3ccc(C#N)c4ncccc34)C[C@@H](C)O2)CCN1C [ER-890964] | 1 |  |  |  |  |  |  |  |  | % Suppression vs. Vehicle (mouse TLR7; 3 h, 33 mg/kg): 96%; % Suppression vs. Vehicle (mouse TLR7; 19 h, 33 mg/kg): 0% |
| CCNC(=O)C1CN(c2ccc(C#N)c3ncccc23)CC(C)O1 (stereo not shown) [ER-894550] | 97 | 98 |  | 72 | 97 | 99 | 48 | 71 | 99 |  |
| CC1CN(c2ccc(C#N)c3ncccc23)CC(C(=O)NC2CCCNC2)O1 (stereo not shown) [ER-897968] | 1 | 81 |  | 3 | 35 | 85 | 0 | 8 | 80 |  |
| CC1CN(c2ccc(C#N)c3ncccc23)CC(C(=O)NCC2CCCN2)O1 (stereo not shown) [ER-897969] | 7 | 0 |  | 29 | 54 | 71 | 0 | 4 | 29 |  |
| CC1CN(c2ccc(C#N)c3ncccc23)CC(C(=O)NCC(C)(C)N(C)C)O1 (stereo not shown) [ER-898566] | 11 | 100 | 99 | 73 | 86 | 98 | 0 | 30 | 100 |  |
| CC1CN(c2ccc(C#N)c3ncccc23)CC(C(=O)NCC2CNCCO2)O1 (stereo not shown) [ER-898694] | 2 | 93 |  | 2 | 36 | 53 | 0 | 0 | 35 |  |
| CC1CN(c2ccc(C#N)c3ncccc23)CC(C(=O)NC2CCNCC2)O1 (stereo not shown) [ER-898946] | 2 | 61 |  | 2 | 16 | 55 | 28 | 0 | 34 |  |
| CC1CN(c2ccc(C#N)c3ncccc23)CC(C(=O)N2CC3(CCNC3)C2)O1 (stereo not shown) [ER-899017] | 4 | 34 |  | 0 | 0 | 10 |  | 0 | 0 |  |
| CNCC1CN(C(=O)[C@H]2CN(c3ccc(C#N)c4ncccc34)C[C@@H](C)O2)C1 [ER-899018] | 9 |  | 73 |  | 12 |  |  |  |  |  |
| CC1CN(c2ccc(C#N)c3ncccc23)CC(C(=O)NC2CCOCC2)O1 (stereo not shown) [ER-899122] | 80 |  |  | 90 | 100 |  | 15 | 89 |  | % Suppression vs. Vehicle (mouse TLR7; 6 h, 11 mg/kg): 98%; % Suppression vs. Vehicle (mouse TLR7; 13 h, 11 mg/kg): 37%; % Suppression vs. Vehicle (mouse TLR7; 24 h, 11 mg/kg): 0% |
| CC1CN(c2ccc(C#N)c3ncccc23)CC(C(=O)N2CCC3(CCNCC3)CC2)O1 (stereo not shown) [ER-899193] | 9 |  | 43 |  | 52 |  |  |  |  |  |
| CC1CN(c2ccc(C#N)c3ncccc23)CC(C(=O)Nc2cnn(C3CCNCC3)c2)O1 (stereo not shown) [ER-899285] | 7 |  | 75 |  | 0 |  |  |  |  |  |
| C[C@@H]1CN(c2ccc(C#N)c3ncccc23)C[C@H](C(=O)N[C@@H]2CCCN(C)C2)O1 [ER-899337] | 2 |  | 99 |  | 30 |  |  |  |  |  |
| CC1CN(c2ccc(C#N)c3ncccc23)CC(C(=O)NC2CCCNCC2)O1 (stereo not shown) [ER-899417] | 1 |  | 71 |  | 0 |  |  |  |  |  |
| CC1CN(c2ccc(C#N)c3ncccc23)CC(C(=O)NC2C3CNCC32)O1 (stereo not shown) [ER-899418] | 5 |  | 19 |  | 10 |  |  |  |  |  |
| CC1CN(c2ccc(C#N)c3ncccc23)CC(C(=O)NC2CNCC2F)O1 (stereo not shown) [ER-899476] |  |  | 99 |  | 65 |  |  |  |  | IC50 (Human TLR7/8; read-out: Human PBMCs IC50; primary human PBMC assay, TLR7/8 potency; ligand not given): 3 nM |
| C[C@@H]1CN(c2ccc(C#N)c3ncccc23)C[C@H](C(=O)NC2CCN(CC(N)=O)CC2)O1 [ER-899481] | 8 |  | 54 |  | 5 |  |  |  |  |  |
